The structures appear in SMILES notation.

We go through seven molecules from patent publication US4840969A, “N-substituted benzamides” (Bayer Aktiengesellschaft, priority 1986, dated 1989).

Series [1] relates to Globodera rostochiensis. Briefly: Critical concentration test, Globodera rostochiensis (potatoes in infested soil). The series is classed as in vivo. To be noted: active compound concentrations of 2.5, 5 and 10 ppm in soil; potato root cysts after six weeks; 18° C. The method, then: Critical concentration test
Test nematode: Globodera rostochiensis
(§1) Solvent: 3 parts by weight of acetone
(§2) Emulsifier: 1 part by weight of alkylaryl polyglycol ether
The treated soil is filled into pots, potatoes are planted and the pots are kept at a greenhouse temperature of 18° C.

Series [2] has as its system Meloidogyne incognita. The series can be described thus: Critical concentration test/nematodes, Meloidogyne incognita (lettuce in infested soil). In kind it is in vivo. As to conditions: active compound concentration of 1.25 ppm-10 ppm in soil; lettuce root galls after four weeks; 27° C. How it is done:
Critical concentration test/nematodes
Test nematode: Meloidogyne incognita
as §1, §2
The treated soil is filled into pots, lettuce is sown and the pots are kept at a greenhouse temperature of 27° C.

A short description of series [3]: LD50 on rats (oral). As to conditions: rat, in vivo, stomach tube, in polyethylene glycol Lutrol, read-out: LD50 (mg of active compound/kg of body weight). The method, then:
LD50 values on rats (oral)
The values were determined in the customary manner.

The conditions of series [4]: known from U.S. Pat. No. 2,978,479 and Pesticide Manual; cited from earlier work.

As for `CC(NC(=O)c1c(F)cccc1F)C(F)(F)F` (stereo not drawn) [Example 1, 2,6-difluorobenzoic acid N-(1,1,1-trifluoro-prop-2-yl)-amide], the degree of effectiveness in series [1] and in series [2] was 95% throughout.

As to `O=C(NCC(F)(F)F)c1c(F)cccc1F` [Example 5], the degree of effectiveness in series [1] came to 95%.

Turning to `CN(CC(F)(F)F)C(=O)c1c(F)cccc1F` [Example 6], the degree of effectiveness in series [2] was determined as 95%.

`CC(NC(=O)c1ccccc1Cl)C(F)(F)F` (stereo not drawn) [Example 29]: the degree of effectiveness in series [1] and in series [2] was 95% throughout.

As for `O=C(NC1(C(F)(F)F)CC1)c1c(F)cccc1F` [Example 33], the degree of effectiveness in series [1] and in series [2] was 95% throughout.

Regarding `CC(NC(=O)c1c(F)cccc1F)C(F)(F)F` (stereo not drawn) [drawing 61], the LD50 in series [3] is over 1000 mg/kg.

`CCOP(=O)(NC(C)C)Oc1ccc(SC)c(C)c1` (stereo not drawn) [fenamiphos, O-ethyl-O-(3-methyl-4-methylthio-phenyl)-N-isopropyl-phosphoric acid ester-amide, reference compound]: the LD50 in series [3] lay within 10 to 20 mg/kg. In series [2], the degree of effectiveness was 95%. The “insecticidal and nematicidal properties” value in series [4] is recorded as “very good”.
